According to patent US20240082345A1, “PEPTIDE COMPOSITION FOR PREVENTION OR TREATMENT OF ALZHEIMER'S DISEASE” (priority 2020, published 2024):
Non-standard residues stand in square brackets, D forms with d. Residues, ends and D or L forms follow the SMILES beside them.

Columns and labels:
tau K18 = target: T1, tau K18 (Homo sapiens, UniProt P10636); experiment: Thioflavin T (ThT) assay of tau aggregation; format: biochemical; settings: 0.5 mg/mL tau K18, 0.1 mg/mL heparin, DTT, PBS pH 7.4, 21 hours incubation; 10-1000 μg/mL (FIG. 7)
T1 construct: 0.5 mg/mL tau K18, 0.1 mg/mL heparin
T1 sequence (P10636 561-685 limits assumed): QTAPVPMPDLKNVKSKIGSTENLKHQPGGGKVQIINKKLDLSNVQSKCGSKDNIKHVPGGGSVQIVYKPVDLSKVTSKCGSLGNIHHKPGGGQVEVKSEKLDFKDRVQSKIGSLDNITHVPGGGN
Method: Thioflavin T (ThT) assay was performed to investigate the effect of DD-S052 and PEGylated DD-S052 on tau aggregation. ThT is known to bind to (3-sheet-rich protein aggregates to produce fluorescence. Synthetic tau K18 was dissolved in PBS (pH 7.4) in order to induce tau aggregation. The polymerization of tau proteins was induced by preparing a solution including PBS (pH 7.4), 0.5 mg/mL tau K18, 0.1 mg/mL heparin and 100 ρ, M DTT. DD-5052 at various concentrations (10, 20, 40, 100, and 1000 μg/mL), a 100 ρ, M methylene blue (MB) solution (positive control), and PEGylated DD-5052 were incubated together with an aggregation mixture for 21 hours. After incubation, a ThT solution (15 ρ, M in a 50 mM glycine buffer, pH 8.9) was added to a 96-well plate containing the sample and the aggregation mixture, and the resulting mixture was incubated for 3 hours. The fluorescence intensity of ThT was measured using a SpectraMax iD3 Multi-Mode Microplate Reader (Molecular Devices, San Jose, CA, USA) at excitation and emission wavelengths of 440 and 484 nm and quantified.

[1] = tested on: LPS-treated BV-2 cells (microglial cell line); experiment: LPS-mediated cytokine production in BV-2 cells (qRT-PCR); format: cell-based; settings: 20 ng/ml peptide + 2 ng/ml LPS co-treatment, 6 hours, vs LPS-treated cells (FIG. 3)
Method: Microglial cell line BV-2 cells were co-treated with 20 ng/ml of peptide (DD-5052) according to the invention and 2 ng/ml of LPS and cultured for 6 hours. Subsequently, the mRNA expression levels of proinflammatory cytokines IL-1(3 and TNF-α were measured using quantitative real-time polymerase chain reaction (PCR).
Specifically, total RNA was extracted from BV-2 cells using an RNA purification kit (Gene All, Seoul, Korea) according to the manufacturer's protocol. cDNA was synthesized using the Revert Aid First Strand cDNA Synthesis Kit (Thermo Scientific, Waltham, MA, USA) and qRT-PCR analysis was performed using the SYBR Green PCR Master Mix (Thermo Scientific, Waltham, MA, USA). The gene-specific primer sequences for IL-1(3 and TNF-α are shown in the following Table 4, and the mRNA levels of IL-1(3 and TNF-α were calculated relative to the control sample amount.

wild-type mice = experiment: LPS-induced neuroinflammation (microgliosis) in brains of wild-type mice, Iba-1 immunohistochemical staining; format: in vivo, mouse
Method: Sections were incubated in 1% H2O2 for 15 minutes, and then put into a solution in which a mouse […] was diluted 1:400, and incubated at 4° C. overnight. After incubation with a biotinylated secondary antibody (diluted 1:200, Vector Laboratories, Inc., Burlingame, CA, USA) at room temperature for 1 hour, the sections were incubated with an avidin-biotin-peroxidase complex (diluted 1:100, vector) for 1 hour. Thereafter, 0.02% 3,3′-diaminobenzidine and 0.01% H2O2 were reacted for about 3 minutes. After each incubation stage, the sections were washed three times with PBS. Finally, the sections were mounted on gelatin-coated slides, and dehydrated while increasing an alcohol concentration and cleared in xylene.
Experiments were designed as illustrated in FIG. 4A to confirm microglia in the brains of wild-type mice, and immunohistochemical staining was performed using a goat-anti Iba-1 antibody (Ab5076,1:500) against Iba-1 which is a marker for microglia. Three-month-old wild-type mice were intraperitoneally injected (i.p.) with LPS (30 mg/kg/day)+vehicle (Hartmann dex) or DD-S052 (30 mg/kg/day)+LPS (30 mg/kg/day), and sacrificed 6 hours after the last injection of LPS. In this case, LPS and DD-S052 were loaded in separate syringes and injected separately into the right and left abdomen, respectively, and LPS was administered, and then DD-S052 was administered approximately 1 minute later. The half-life of LPS in mouse blood was approximately 2 to 4 minutes. 6 hours after administration of LPS and DD-S052, mouse brains were removed by cardiac perfusion fixation (4% PFA). Thereafter, the removed mouse brain was secondarily fixed in 4% PFA for 20 hours, and then immersed in a 30% sucrose solution. Subsequently, the mouse brains were frozen and sliced into a thickness of 30 μm.
Thereafter, immunohistochemical staining for Iba-1 was performed by the method described in Example 1-2 in order to confirm microglia in the mouse hippocampus, and the results are shown in FIG. 4B.
Microglia were confirmed in the substantia nigra pars compacta (SNc) by performing immunohistochemical staining for Iba-1. Wild-type mice were treated with LPS and DD-5052 in the same manner as in Example 5-1.

5XFAD mice [2] = experiment: LPS-induced neuroinflammation in brains of 5XFAD Alzheimer's dementia mice, Iba-1 immunohistochemical staining; format: in vivo, mouse; settings: 3-month-old 5XFAD mice, single dose 10 mg/kg + LPS 3 mg/kg, 48 hours, vs LPS+vehicle (FIG. 5B)
Method: Since LPS causes different degrees of inflammatory response depending on the strain of animals to be administered, LPS origin and the like, the animals were co-administered a single dose of 3 mg/kg of LPS and 10 mg/kg of DD-5052, and then sacrificed 48 hours later, 5XFAD mice were treated with 3 mg/kg of LPS by referencing a document which confirms the mortality rate by treating 5XFAD mice with 3 mg/kg of LPS (Barton, S. M.; Janve, V. A.; McClure, R.; Anderson, A.; Matsubara, J. A.; Gore, J. C.; Pham, W., Lipopolysaccharide Induced Opening of the Blood Brain Barrier on Aging 5XFAD Mouse Model. J Alzheimers Dis 2019, 67, (2), 503-513.) and a document which confirms that microgliosis reaches its maximum value from day 2 after the administration of LPS (Kondo, S.; Kohsaka, S.; Okabe, S., Long-term changes of spine dynamics and microglia after transient peripheral immune response triggered by LPS in vivo. […] 48 hours after administration of LPS and DD-5052, mouse brains were removed by cardiac perfusion fixation (4% PFA). Thereafter, the removed mouse brain was secondarily fixed in 4% PFA for 20 hours, and then immersed in a 30% sucrose solution. Subsequently, the mouse brains were frozen and sliced into a thickness of 30

5XFAD mice [3] = experiment: Cognitive function experiment (spontaneous alternation, total arm entry) in 5XFAD mice; format: in vivo, mouse; settings: 5.5-month-old 5XFAD mice, 2 mg/kg i.p. every other day for 4 weeks
Method: (§1) Then, cognitive function experiments were performed on each mouse, and then the mouse brain was fixed by cardiac perfusion fixation. Thereafter, the removed mouse brain was secondarily fixed in a 4% PFA solution for 20 hours, and then immersed in a 30% sucrose solution. Subsequently, the mouse brains were frozen and sliced into a thickness of 30 μm.
The cognitive function experiment is a novel experiment based on the instinctive behavior of rodents with the will to explore new environments, and is an experiment to evaluate the spatial perception ability of mice to choose a path different from the one which mice chose immediately before in a maze, and scores are given by dividing spontaneous alternation (the ratio of choosing a different path from the path chosen immediately before) by the total number of passages passed (total arm entry). The total arm entry during the experiment becomes an index to evaluate whether all groups have similar motility and whether the experiment is performed normally, apart from spatial perception ability.

5XFAD mice [4] = experiment: Alzheimer's dementia-related pathology in 5XFAD mice, immunofluorescence staining (4G8, Iba-1, NeuN); format: in vivo, mouse
Method: as §1
The effects of DD-S052 on beta-amyloid accumulation, microgliosis, and neuronal loss were confirmed using an immunofluorescence staining method.
Specifically, in the case of immunofluorescence labeling, 4 to 5 coronal sections were obtained at subventricular zone (1.18 and 0.02 mm from bregma) and hippocampal formation (−1.58 and −3.80 mm from bregma) levels based on Paxinos and Franklin's “The Mouse Brain in Stereotaxic Coordinates.” Brain tissue was washed with PBS using the free-floating method in a Titramax 101 orbital shaker (Heidolph, Schwabach, Germany) and sections were incubated with PBS including 0.3% Triton X-100, 0.5 mg/mL bovine serum albumin (BSA) and primary antibodies as follows at 4° C. overnight: mouse anti-4G8 antibody (1:2,000; Cat. #800701, BioLegend, USA), mouse anti-NeuN antibody (1:100; Cat. #MAB377, Merck KGaA, Darmstadt, Germany), and goat anti-Iba-1 antibody (1:500; Cat. #ab5076, Abcam, Cambridge, UK).
Before being incubated with the anti-4G8 antibody, brain sections were incubated with 70% formic acid for antigen retrieval for 20 minutes, washed three times with PBS for 5 minutes each, and then incubated with a secondary antibody at room temperature for 50 minutes, and fluorescence signals were observed. As the secondary antibodies, the following antibodies were used: donkey Alexa 488-conjugated anti-mouse IgG (1:200; Cat. #A21202, Thermo Fisher Scientific Inc.), donkey Alexa 488-conjugated anti-goat IgG (1:200; Cat. #A11055, Thermo Fisher Scientific Inc.), and donkey Alexa 594-conjugated anti-rat IgG (1:200; Cat. #A21209, Thermo Fisher Scientific Inc.). All antibodies were diluted with PBS including 0.3% Triton X-100.

[5] = Artificial membrane permeation test simulating the blood-brain barrier (PAMPA-096), LC-MS / ESI-FT-ICR-MS; format: in vitro ADME; settings: for MS peak intensity, Before / LogPe: 100 μg/ml peptide; for LogPe: 18 hr, room temperature, PBS; for MS peak intensity, Acceptor / MS peak intensity, Donor: after 18 hr
Method: In order to confirm whether the peptide DD-S052 of the present invention passes through the blood-brain barrier (BBB), an artificial membrane permeation test simulating the blood-brain barrier was performed using a parallel artificial membrane permeability assay kit (PAMPA-096; BioAssay Systems).
Analysis conditions are shown in the following Table 5, and analysis was performed by liquid chromatography-mass spectrometry (LC-MS).
Quantitative analysis was performed using electrospray ionization coupled to Fourier transform ion cyclotron resonance mass spectrometry (ESI-FT-ICR-MS), and the analysis conditions are shown in the following Table 6.
The intensity value of a peak corresponding to the test material was used according to the Log Pe function described in an existing document (Evaluation of the reproducibility of Parallel Artificial Membrane Permeation Assays PAMPA, Sigma Aldrich), and the value calculated by the Log Pe function was used to predict the degree of permeation by referencing an existing document (Brian. J et al. Predicting a Drug's Membrane Permeability: A Computational Model Validated With in Vitro Permeability Assay Data. J Phys Chem B. 2017 May 25;121(20):5228-5237).

Which “fluorescence intensity of thioflavin T (ThT) (tau K18 aggregation)” value (tau K18) does the source give for “EG-KLRVKLRRYLR-NH2 (AcOH) (not fully specified; N-terminal PEG, C-terminal amide, acetate salt; DD-S052P; BINDING (11) amine group (NH2) is added to C-terminus of polypeptide.; SITE (9) trifluoroacetic acid (TFA) at a terminus of the 9th amino acid from the N terminus of a peptide is substituted with an acetate salt.; SITE (1) peptide N-terminus PEGylation)” here?
Its value is “reduced”.

What does the source list for `CC(C)C[C@@H](NC(=O)[C@H](N)CCCCN)C(=O)N[C@H](CCCNC(=N)N)C(=O)N[C@@H](C(=O)N[C@H](CCCCN)C(=O)N[C@H](CC(C)C)C(=O)N[C@H](CCCNC(=N)N)C(=O)N[C@H](CCCNC(=N)N)C(=O)N[C@H](Cc1ccc(O)cc1)C(=O)N[C@H](CC(C)C)C(=O)N[C@H](CCCNC(=N)N)C(N)=O)C(C)C` [DD-S052, KLRVKLRRYLR-NH2 (AcOH)] (H-[dK][dL][dR][dV][dK][dL][dR][dR][dY][dL][dR]-NH2; N-terminus assumed)?
mRNA expression of IL-1(3 induced by LPS) [1]: suppressed; mRNA expression of TNF-α induced by LPS [1]: suppressed; microglial morphology in hippocampus (wild-type mice; 3-month-old wild-type mice, 30 mg/kg/day i.p. + LPS 30 mg/kg/day i.p., 6 hours after last LPS (FIG. 4B)): tendency to change from an amoeboid shape to a ramified shape; number of Iba-1-positive cells in hippocampus (wild-type mice; 3-month-old wild-type mice, 30 mg/kg/day i.p. + LPS 30 mg/kg/day, vs LPS+vehicle (Hartmann dex), p<0.001 (FIG. 4C)): remarkably decreased; microglial morphology in substantia nigra pars compacta (SNc) (wild-type mice; wild-type mice, 30 mg/kg/day i.p. + LPS 30 mg/kg/day (FIG. 4D)): tendency to change from an amoeboid shape to a ramified shape; Iba-1(+) microglia in the SNc (wild-type mice; wild-type mice, 30 mg/kg/day i.p. + LPS 30 mg/kg/day, vs LPS+vehicle (FIG. 4D)): tended to decrease; Iba-1(+) microglia in cerebral cortex and hippocampus (5XFAD mice [2]): decreased; total arm entry (5XFAD mice [3]; 8-minute session, vs vehicle-treated 5XFAD, no significance between groups): increased; spontaneous alternation (5XFAD mice [3]; vs vehicle-treated 5XFAD (FIG. 6B)): increased; number of NeuN(+) cells (neuronal loss) (5XFAD mice [4]; 2 mg/kg i.p. every other day for 4 weeks): increased; 4G8(+) region (beta-amyloid accumulation) (5XFAD mice [4]; 2 mg/kg i.p. every other day for 4 weeks (FIG. 6C)): reduced; number of Iba-1(+) cells (microgliosis) (5XFAD mice [4]; 2 mg/kg i.p. every other day for 4 weeks (FIG. 6D)): reduced; fluorescence intensity of thioflavin T (ThT) (tau K18 aggregation) (tau K18): reduced; MS peak intensity, Before ([5]; peak at 375 m/z): 1829478400; LogPe ([5]; peak at 375 m/z): −5.405; MS peak intensity, Acceptor ([5]; peak at 375 m/z): 717305173; MS peak intensity, Donor ([5]; peak at 375 m/z): 909677952; MS peak intensity, Before ([5]; peak at 512 m/z): 1667509760; LogPe ([5]; peak at 512 m/z): −5.362; MS peak intensity, Acceptor ([5]; peak at 512 m/z): 717488192; MS peak intensity, Donor ([5]; peak at 512 m/z): 867968256
